Test results as given in patent US20260183396A1, “CXCR3 OVEREXPRESSION IN CAR-NK CELLS PRIMES MIGRATION/HOMING INTO THE TUMOR MICROENVIRONMENT” (DANA-FARBER CANCER INSTITUTE, INC., priority 2022, published 2026).

Test system: MPM explants
Experiment: Dynamic single-cell RNA sequencing of MPM explants
Type: cell-based, human
Procedure: Dynamic single-cell RNA sequencing and data analysis. The previous protocol (Sehgal et al., J. Clin. Invest. 131:e135038 (2021)) was adapted to test S1 explants from MPM PDOTS. […] After 24 hours of treatment in a ULA dish, tumor spheroids were digested with trypsin in a 37° C. incubator for 5 minutes to obtain single-cell suspensions. Cells were loaded onto a 10× chromium instrument (10× Genomics) per manufacturer's instructions. ScRNA libraries were generated using the single cell 3′ reagent kit (10× Genomics) per the user guide. Quality control of the completed libraries was performed using a bioanalyzer high sensitivity DNA kit (Agilent) and then sequenced using the Illumina NextSeq 500 platform.
Raw sequencing reads were processed using the 10× Genomics CellRanger bioinformatics pipeline v6.0.1. The assembled matrix was then fed into the standard workflow of the R package, Seurat v4.0.4. Genes that were expressed in at least 3 cells, and only cells that expressed at least […], were kept for downstream processing. Additionally, cells expressing more than 7000 genes and cells with more than 10% of UMIs mapping to mitochondrial genes were removed from the analysis. All the samples were prepared and sequenced together on the same platform. The filtered matrix was log-normalized using global scaling in Seurat. UMI and mitochondrial transcript content were used as regression parameters. The normalized matrix was scaled and centered gene-wise, and then underwent dimensionality reduction using principal component analysis (PCA) on the highly varying genes. After visual inspection of the PCA elbow plot, the top 10 PCs were chosen for further analysis. Clustering was performed on the chosen PCs using the shared nearest neighbor algorithm in Seurat with default parameters.
A Uniform Manifold Approximation and Projection (UMAP) map was computed and plotted with the DimPlot module of Seurat. Cluster differential expression analysis was performed in Seurat using the FindMarkers command using the Wilcoxon rank sum test without thresholds. Contour plots overlayed onto UMAPs were generated with R package ggplot2 (Wickham, Springer-Verlag New York (2016)).
Cell types were identified based on comparative analysis of the signatures published previously (Han et al., Cell 172:1091-1107 (2018); Muhl et al., Nat. Commun. 11:3953 (2020); Correia et al., Proc. Natl. Acad. Sci. U.S.A. 115:E5980-E5989 (2018); Gueugnon et al., Am. J. Pathol. 178:1033-42 (2011)), as well as marker genes identified in this study, which were used to remove genes ubiquitously expressed across cell subpopulations. Collagen-encoding genes were added to the fibroblast signature.

Nc1ncnc2c1ncn2[C@@H]1O[C@@H]2COP(=O)([S-])O[C@@H]3[C@H](O)[C@@H](COP([O-])(=S)O[C@H]2[C@H]1O)O[C@H]3n1cnc2c(N)ncnc21.[Na+].[Na+] (stereo partly drawn) [ADU-S100]
BST2 avg log2FC (10 μM ADU-S100): 2.86
C15orf48 avg log2FC (10 μM ADU-S100): 3.02
CCL5 avg log2FC (10 μM ADU-S100): 2.10
CMPK2 avg log2FC (10 μM ADU-S100): 2.19
CXCL1 avg log2FC (10 μM ADU-S100): 2.20
CXCL10 avg log2FC (10 μM ADU-S100): 3.10
CXCL11 avg log2FC (10 μM ADU-S100): 2.45
HES4 avg log2FC (10 μM ADU-S100): 2.07
HLA-B avg log2FC (10 μM ADU-S100): 2.09
HLA-C avg log2FC (10 μM ADU-S100): 2.08
IFI6 avg log2FC (10 μM ADU-S100): 4.76
IFI27 avg log2FC (10 μM ADU-S100): 4.89
IFI30 avg log2FC (10 μM ADU-S100): 2.24
IFI35 avg log2FC (10 μM ADU-S100): 2.69
IFIT1 avg log2FC (10 μM ADU-S100): 3.89
IFIT2 avg log2FC (10 μM ADU-S100): 3.99
IFIT3 avg log2FC (10 μM ADU-S100): 4.01
IFITM1 avg log2FC (10 μM ADU-S100): 3.42
IL1B avg log2FC (10 μM ADU-S100): 2.23
IL1RN avg log2FC (10 μM ADU-S100): 2.21
IL32 avg log2FC (10 μM ADU-S100): 3.43
IRF7 avg log2FC (10 μM ADU-S100): 2.44
ISG15 avg log2FC (10 μM ADU-S100): 5.19
ISG20 avg log2FC (10 μM ADU-S100): 3.89
LAP3 avg log2FC (10 μM ADU-S100): 2.78
LY6E avg log2FC (10 μM ADU-S100): 3.24
MDK avg log2FC (10 μM ADU-S100): 2.01
MX1 avg log2FC (10 μM ADU-S100): 2.84
OAS1 avg log2FC (10 μM ADU-S100): 3.40
OAS3 avg log2FC (10 μM ADU-S100): 2.02
OASL avg log2FC (10 μM ADU-S100): 3.01
PLAAT4 avg log2FC (10 μM ADU-S100): 2.38
PLSCR1 avg log2FC (10 μM ADU-S100): 2.64
RSAD2 avg log2FC (10 μM ADU-S100): 4.43
SAA1 avg log2FC (10 μM ADU-S100): 2.46
STAT1 avg log2FC (10 μM ADU-S100): 2.09
TFPI2 avg log2FC (10 μM ADU-S100): 2.88
TNFSF13B avg log2FC (10 μM ADU-S100): 2.03
WARS avg log2FC (10 μM ADU-S100): 3.24
WFDC2 avg log2FC (10 μM ADU-S100): 2.06
IL-33 expression in CAFs (24 hours): potent and unique STING agonist induction
CXCR3 ligand expression (CXCL9, CXCL10, CXCL11) (24 hours, primarily MSLN positive tumor cells (cluster 1) and CAFs (clusters 4, 5)): strongly induced
TGFB1 expression (MPM cluster 1 relative to clusters 0, 3): downregulated
NECTIN2 (CD112) expression in tumor cells (NK cell activating ligand): increased
HLA-A/B/C expression in tumor cells (NK cell inhibitory ligands): dose-dependent increases
ANGPTL4 avg log2FC (STING agonist treatment): −1.48
CCDC80 avg log2FC (STING agonist treatment): −1.57
CEMIP avg log2FC (STING agonist treatment): −1.20
ID1 avg log2FC (STING agonist treatment): −1.07
IGFBP4 avg log2FC (STING agonist treatment): −1.42
KRT19 avg log2FC (STING agonist treatment): −1.81
LDHA avg log2FC (STING agonist treatment): −1.16
NDRG1 avg log2FC (STING agonist treatment): −1.07
PABPC1 avg log2FC (STING agonist treatment): −1.11
PGK1 avg log2FC (STING agonist treatment): −1.04
RPL41 avg log2FC (STING agonist treatment): −1.09
RPS29 avg log2FC (STING agonist treatment): −1.10
RPSA avg log2FC (STING agonist treatment): −1.10
SERPINB3 avg log2FC (STING agonist treatment): −2.15
SERPINB4 avg log2FC (STING agonist treatment): −1.25
SERPINB7 avg log2FC (STING agonist treatment): −1.73
TGFBI avg log2FC (STING agonist treatment): −2.38
TPI1 avg log2FC (STING agonist treatment): −1.11
TUBA1A avg log2FC (STING agonist treatment): −1.02
abundance of CD8 positive cell populations, including Tregs (high-dose treatment): depletion
PVR (CD155) expression in tumor cells (predominantly inhibitory ligand): decreased expression
